ChEMBL document CHEMBL1201862, “PubChem BioAssay data set” (2004)
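Method: 48-hour compound exposure of cells in 96-well plates, five concentrations, linear interpolation of endpoints. GI50 marks 50% less growth.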 The source made the active and inactive calls. Cut-off read from the data, not from the text of the source: active = GI50 up to about 1.1 µM and inactive = higher.

Legend:
Experiment in all cases: DTP human tumour cell line panel, 48 h
[1] = tested on: A549
[2] = tested on: CAKI-1
[3] = tested on: EKVX
[4] = tested on: HCC 2998
[5] = tested on: HCT-116
[6] = tested on: M14
[7] = tested on: MOLT-4
[8] = tested on: NCI-H226
[9] = tested on: OVCAR-3
[10] = tested on: OVCAR-8
[11] = tested on: SF-268
[12] = tested on: SN12C
[13] = tested on: U-251
[14] = tested on: UACC-257
[15] = tested on: HL-60
[16] = tested on: TK-10

Measured: GI50

CC(=O)OC1COC(n2c(=S)n(-c3ccc(C)cc3)c(=O)c3ccccc32)C(OC(C)=O)C1OC(C)=O (stereo not given)
inactive: [1] > 100 µM | [2] > 100 µM | [3] > 100 µM | [4] > 100 µM | [5] > 100 µM | [6] > 100 µM | [7] > 100 µM | [8] > 100 µM | [9] > 100 µM | [10] 68.2 µM | [11] > 100 µM | [12] > 100 µM | [13] > 100 µM | [14] > 100 µM

O=S(=O)(N/N=C/c1cccc(/C=N/NS(=O)(=O)c2ccccc2)c1)c1ccccc1
inactive: [1] 79.6 µM | [3] 77.6 µM | [4] > 100 µM | [5] 83.9 µM | [15] 63.4 µM | [6] > 100 µM | [7] 84.5 µM | [8] > 100 µM | [9] 54.8 µM | [10] 55.5 µM | [11] > 100 µM | [12] > 100 µM | [16] 47.8 µM | [13] 69.5 µM | [14] 39.3 µM

COC(=O)c1ccccc1N1C(=O)Cc2ccccc2C1=O
inactive: [1] > 100 µM | [3] > 100 µM | [4] > 100 µM | [5] > 10 µM | [7] > 100 µM | [8] > 100 µM | [9] 35.6 µM | [10] 75.9 µM | [11] 55.1 µM | [12] > 100 µM | [16] > 100 µM | [13] > 100 µM | [14] > 100 µM

Cc1[nH]c2ccccc2c1-c1n[nH]c(=O)c2ccccc12
inactive: [1] 24.6 µM | [2] 13.4 µM | [3] 17.9 µM | [4] 30.4 µM | [5] 13.3 µM | [15] 7.82 µM | [6] 21 µM | [7] 20.5 µM | [8] 18.7 µM | [9] 23.3 µM | [10] 32.5 µM | [16] 37.1 µM | [13] 31.5 µM | [14] 25.1 µM

Cc1[nH]c2ccccc2c1C1Cc2ccccc2N1C(=O)/C(Cl)=C/c1ccccc1 (stereo not given)
inactive: [1] 88.1 µM | [2] 50.6 µM | [3] > 48.9 µM | [4] > 100 µM | [5] 36.5 µM | [15] 98.2 µM | [6] > 100 µM | [7] 15.2 µM | [8] > 69 µM | [9] > 100 µM | [10] > 100 µM | [11] > 78.9 µM | [12] > 100 µM | [16] > 73.3 µM | [13] > 100 µM | [14] > 100 µM

CCOC(=O)/C=C1\CCCC12OCCO2
inactive: [1] > 100 µM | [2] > 100 µM | [4] > 100 µM | [5] 54.1 µM | [15] > 100 µM | [6] > 100 µM | [7] 30.5 µM | [8] > 100 µM | [9] 28 µM | [10] 89.5 µM | [11] > 100 µM | [12] > 100 µM | [16] > 100 µM | [13] > 100 µM | [14] > 100 µM

O=c1c(C(c2ccc([N+](=O)[O-])cc2)c2c(O)c3ccccc3n(-c3ccccc3)c2=O)c(O)c2ccccc2n1-c1ccccc1
inactive: [1] 15.5 µM | [2] 44.4 µM | [3] 24.5 µM | [4] 12.4 µM | [5] 18.7 µM | [7] 2.7 µM | [8] 24.1 µM | [9] 24.1 µM | [10] 14.9 µM | [11] 15.3 µM | [12] 11.7 µM | [16] 44 µM | [13] 10.2 µM

CNC(C)(C)Cc1ccc(Cl)cc1
inactive: [1] > 100 µM | [2] > 100 µM | [3] > 100 µM | [4] > 100 µM | [5] > 100 µM | [6] > 100 µM | [7] > 100 µM | [9] > 100 µM | [10] > 100 µM | [11] > 100 µM | [12] > 100 µM | [16] > 100 µM | [13] > 100 µM | [14] > 100 µM

NC(=O)C(=O)C1C(=O)N(c2ccccc2)N=C1N (stereo not given)
inactive: [1] > 100 µM | [2] > 100 µM | [4] > 100 µM | [5] > 100 µM | [15] > 100 µM | [6] > 100 µM | [7] > 100 µM | [8] > 100 µM | [9] > 100 µM | [10] > 100 µM | [11] > 100 µM | [12] > 100 µM | [16] > 100 µM | [14] > 100 µM

CC(C)C(C(=O)O)N(CC1(O)OCC(O)C(O)C1O)N=O (stereo not given)
inactive: [1] > 100 µM | [3] > 100 µM | [4] > 100 µM | [5] > 100 µM | [15] > 100 µM | [6] > 100 µM | [7] > 100 µM | [9] > 100 µM | [10] > 100 µM | [16] > 100 µM | [13] > 100 µM | [14] > 100 µM

O=C(CCc1ccccc1)NS(=O)(=O)c1ccccc1
inactive: [1] > 100 µM | [2] > 100 µM | [3] > 100 µM | [4] > 100 µM | [5] > 100 µM | [15] > 100 µM | [6] > 100 µM | [7] > 100 µM | [8] > 100 µM | [9] > 100 µM | [10] > 100 µM | [11] > 100 µM | [12] > 100 µM | [16] > 100 µM | [13] > 100 µM | [14] > 100 µM

CC(=O)OCCOCNC(=S)N/N=C/c1cc(Br)cs1
inactive: [1] > 100 µM | [3] > 100 µM | [4] > 100 µM | [5] > 100 µM | [15] > 100 µM | [6] > 100 µM | [7] > 100 µM | [8] > 100 µM | [9] > 100 µM | [10] > 100 µM | [11] > 100 µM | [12] > 100 µM | [16] > 100 µM | [13] > 100 µM | [14] > 100 µM

Cc1cc(N(CCC#N)S(=O)(=O)c2ccccc2)ccc1C=O
inactive: [1] > 100 µM | [2] > 100 µM | [3] > 100 µM | [4] > 100 µM | [5] > 100 µM | [15] > 100 µM | [6] > 100 µM | [7] > 100 µM | [8] > 100 µM | [9] > 100 µM | [10] > 100 µM | [11] > 100 µM | [12] > 100 µM | [13] > 100 µM | [14] > 100 µM

CN(C)CC1(C)CC/C(=C\c2ccc3c(c2)OCO3)C1=O (stereo not given)
inactive: [1] > 100 µM | [2] 6.58 µM | [4] > 100 µM | [5] > 100 µM | [6] > 100 µM | [7] 96.4 µM | [8] > 100 µM | [9] > 100 µM | [10] > 100 µM | [11] > 100 µM | [12] > 100 µM | [16] > 100 µM | [13] > 100 µM | [14] > 100 µM

Clc1ccc2c(c1)-c1c3c(nn1-c1ccccc1)-c1ccccc1SC3O2 (stereo not given)
inactive: [1] > 100 µM | [3] > 100 µM | [4] > 100 µM | [5] > 100 µM | [15] 79.4 µM | [7] > 100 µM | [9] > 100 µM | [10] > 100 µM | [11] > 100 µM | [16] > 100 µM | [13] > 100 µM | [14] > 100 µM

NC1CCC2(O)c3ccccc3C2C1 (stereo not given)
inactive: [1] > 100 µM | [3] > 100 µM | [5] > 100 µM | [15] > 100 µM | [6] > 100 µM | [7] > 100 µM | [8] > 100 µM | [10] > 100 µM | [11] > 100 µM | [12] > 100 µM | [16] > 100 µM | [13] > 100 µM | [14] > 100 µM

Cc1ccc(/N=N/c2c(C)nn(-c3ccccc3)c2-c2ccccc2)c(Br)c1
inactive: [1] > 100 µM | [2] > 100 µM | [3] > 100 µM | [4] 61.8 µM | [5] 12.6 µM | [15] 4.3 µM | [6] > 100 µM | [7] 8.15 µM | [8] > 100 µM | [9] > 100 µM | [10] > 100 µM | [11] > 100 µM | [12] > 100 µM | [16] > 100 µM | [14] 79.8 µM

CC1C=CC(C)C2(O)C(=O)NC(O)C12 (stereo not given)
inactive: [1] > 100 µM | [2] > 100 µM | [3] > 100 µM | [4] > 100 µM | [5] > 100 µM | [15] > 100 µM | [6] > 100 µM | [7] > 100 µM | [8] > 100 µM | [10] > 100 µM | [11] > 100 µM | [12] > 100 µM | [16] > 100 µM | [13] > 100 µM | [14] > 100 µM

NC(N)=NN/C(=C1/N=c2ccc([N+](=O)[O-])cc2=NC1=O)C(O)c1ccco1 (stereo not given)
inactive: [1] > 100 µM | [2] > 100 µM | [3] > 100 µM | [4] > 100 µM | [5] > 100 µM | [15] 35.9 µM | [6] > 100 µM | [7] > 100 µM | [8] > 100 µM | [10] > 100 µM | [11] > 100 µM | [12] > 100 µM | [16] > 100 µM | [13] > 100 µM | [14] > 100 µM
